Measured values reported in PubChem BioAssay AID248 (DTP/NCI, 2004).
Inconclusive results and toxic doses are left out. Rule as the data show it: active = T/C of 150% or more; inactive = T/C below 125%.

System: L1210 leukemia ip in BDF1 mice, survival T/C
Assay: NCI In Vivo Anticancer Drug Screen. Data for tumor model L1210 Leukemia (intraperitoneal) in B6D2F1 (BDF1) mice
Details: endpoint: mean survival time, higher = longer survival
How it was run: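 Read-out is survival time, reported as the treated-group measurement over the vehicle-control measurement.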

[1] = dose: 100.0 mg/kg/injection, schedule: Q01DX009 (ip), vehicle: Klucel (hydroxypropylcellulose) (HPC)
[2] = dose: 200.0 mg/kg/injection, schedule: Q01DX009 (ip), vehicle: Klucel (hydroxypropylcellulose) (HPC)
[3] = dose: 400.0 mg/kg/injection, schedule: Q01DX009 (ip), vehicle: Klucel (hydroxypropylcellulose) (HPC)
[4] = dose: 50.0 mg/kg/injection, schedule: Q01DX009 (ip), vehicle: saline with Tween-80
[5] = dose: 100.0 mg/kg/injection, schedule: Q01DX009 (ip), vehicle: saline with Tween-80
[6] = dose: 100.0 mg/kg/injection, schedule: Q04DX002 (ip), vehicle: Klucel (hydroxypropylcellulose) (HPC)
[7] = dose: 200.0 mg/kg/injection, schedule: Q01DX009 (ip), vehicle: saline with Tween-80
[8] = dose: 200.0 mg/kg/injection, schedule: Q04DX002 (ip), vehicle: Klucel (hydroxypropylcellulose) (HPC)
[9] = dose: 400.0 mg/kg/injection, schedule: Q04DX002 (ip), vehicle: Klucel (hydroxypropylcellulose) (HPC)
[10] = dose: 100.0 mg/kg/injection, schedule: Q04DX003 (ip), vehicle: saline
[11] = dose: 200.0 mg/kg/injection, schedule: Q04DX003 (ip), vehicle: saline
[12] = dose: 100.0 mg/kg/injection, schedule: Q04DX003 (ip), vehicle: saline with Tween-80
[13] = dose: 200.0 mg/kg/injection, schedule: Q04DX003 (ip), vehicle: saline with Tween-80
[14] = dose: 400.0 mg/kg/injection, schedule: Q04DX003 (ip), vehicle: saline with Tween-80
[15] = dose: 100.0 mg/kg/injection, schedule: Q01DX001 (ip), vehicle: saline
[16] = dose: 200.0 mg/kg/injection, schedule: Q01DX001 (ip), vehicle: saline
[17] = dose: 400.0 mg/kg/injection, schedule: Q01DX001 (ip), vehicle: saline
[18] = dose: 100.0 mg/kg/injection, schedule: Q04DX002 (ip), vehicle: saline
[19] = dose: 200.0 mg/kg/injection, schedule: Q04DX002 (ip), vehicle: saline

Measured: T/C

CC(=O)c1cccc(NC(=O)Nc2ncccc2C)c1
inactive: [1] 102 % of control | [2] 101 % of control | [3] 98 % of control

Nc1nc(N)nc(-c2ccccc2)n1
inactive: [4] 94 % of control | [1] 111 % of control | [5] 94 % of control | [6] 114 % of control | [2] 111 % of control | [7] 97 % of control | [8] 107 % of control | [3] 93 % of control | [9] 88 % of control

CP(=S)(c1ccccc1)P(C)(=S)c1ccccc1 (configuration not stated)
inactive: [1] 99 % of control | dose: 100.0 mg/kg/injection, schedule: Q04DX003 (ip), vehicle: Klucel (hydroxypropylcellulose) (HPC) 98 % of control | [2] 103 % of control | dose: 200.0 mg/kg/injection, schedule: Q04DX003 (ip), vehicle: Klucel (hydroxypropylcellulose) (HPC) 101 % of control | [3] 94 % of control | dose: 400.0 mg/kg/injection, schedule: Q04DX003 (ip), vehicle: Klucel (hydroxypropylcellulose) (HPC) 98 % of control

CN1/C(=C/C=N/NC(N)=S)C(C)(C)c2ccccc21
inactive: dose: 100.0 mg/kg/injection, schedule: Q01DX001 (ip), vehicle: carboxymethylcellulose (CMC) 102 % of control | dose: 200.0 mg/kg/injection, schedule: Q01DX001 (ip), vehicle: carboxymethylcellulose (CMC) 98 % of control | dose: 400.0 mg/kg/injection, schedule: Q01DX001 (ip), vehicle: carboxymethylcellulose (CMC) 98 % of control

N#CC(Cl)(Cl)C(N)=O
inactive: dose: 12.5 mg/kg/injection, schedule: Q04DX002 (ip), vehicle: saline 88 % of control

COc1ccc2c(c1OC)C1(CCN(C)C)CC(O)CCC1C=C2 (configuration not stated)
inactive: [10] 102 % of control | [11] 102 % of control

O=C(O)C(Cc1cccs1)Cc1cccs1
inactive: dose: 50.0 mg/kg/injection, schedule: Q04DX003 (ip), vehicle: carboxymethylcellulose (CMC) 120 % of control | dose: 100.0 mg/kg/injection, schedule: Q04DX003 (ip), vehicle: carboxymethylcellulose (CMC) 104 % of control | dose: 200.0 mg/kg/injection, schedule: Q04DX003 (ip), vehicle: carboxymethylcellulose (CMC) 108 % of control

C=CCOc1nc(SC)ncc1C(=O)O
inactive: dose: 100.0 mg/kg/injection, schedule: Q01DX001 (ip), vehicle: Klucel (hydroxypropylcellulose) (HPC) 97 % of control | dose: 200.0 mg/kg/injection, schedule: Q01DX001 (ip), vehicle: Klucel (hydroxypropylcellulose) (HPC) 97 % of control | dose: 400.0 mg/kg/injection, schedule: Q01DX001 (ip), vehicle: Klucel (hydroxypropylcellulose) (HPC) 91 % of control

Cc1cc2c(cc1[N+](=O)[O-])OCCO2
inactive: [12] 93 % of control | [13] 89 % of control | [14] 88 % of control

O=C1C=CC(=O)C2C3C=CC(CC3)C12 (configuration not stated)
inactive: [15] 107 % of control | [16] 98 % of control | [17] 98 % of control

O=c1cc(C[n+]2ccccc2)[nH]c(=O)[nH]1
inactive: [10] 89 % of control | [11] 89 % of control

Cc1ccccc1Nc1ncnc2c1cnn2-c1ccccc1
inactive: [15] 102 % of control | [16] 105 % of control | [17] 115 % of control

CCn1cc(C(=O)O)c(=O)c2cccc(OC)c21
inactive: dose: 50.0 mg/kg/injection, schedule: Q04DX002 (ip), vehicle: saline 86 % of control | [18] 115 % of control | [19] 100 % of control

O=C(N/N=C/c1cccnc1)c1ccc(O)cc1
inactive: [1] 91 % of control | [2] 96 % of control | [3] 94 % of control

O=C(NCCNC(=O)C(Cl)(Cl)Cl)C(Cl)(Cl)Cl
inactive: [1] 89 % of control | [2] 91 % of control | [3] 87 % of control

Cc1ccc([P+](Cc2ccccc2)(c2ccc(C)cc2)c2ccc(C)cc2)cc1
inactive: dose: 75.0 mg/kg/injection, schedule: Q01DX001 (ip), vehicle: saline 97 % of control | dose: 150.0 mg/kg/injection, schedule: Q01DX001 (ip), vehicle: saline 97 % of control

O=C(NCO)NCO
inactive: dose: 75.0 mg/kg/injection, schedule: Q01DX001 (ip), vehicle: Klucel (hydroxypropylcellulose) (HPC) 95 % of control | dose: 150.0 mg/kg/injection, schedule: Q01DX001 (ip), vehicle: Klucel (hydroxypropylcellulose) (HPC) 93 % of control | dose: 300.0 mg/kg/injection, schedule: Q01DX001 (ip), vehicle: Klucel (hydroxypropylcellulose) (HPC) 97 % of control

COc1ccc([N+](=O)[O-])cc1NC(=O)Nc1c(C)n(C)n(-c2ccccc2)c1=O
inactive: dose: 50.0 mg/kg/injection, schedule: Q01DX009 (ip), vehicle: Klucel (hydroxypropylcellulose) (HPC) 108 % of control | [1] 105 % of control | [2] 97 % of control

O=C(O)/C(I)=C(\I)C(=O)O
inactive: [18] 106 % of control | [19] 117 % of control

CC(=O)OC1CCC2(C)C(CCC3C2CCC2(C)C(C(C)C(=O)O)CCC32)C1 (configuration not stated)
inactive: [6] 100 % of control | [12] 104 % of control | [8] 97 % of control | [13] 98 % of control | [9] 94 % of control | [14] 93 % of control

CN(C)c1ccc(/C=N/NC(=O)CNC(=O)c2ccc(Cl)c(Cl)c2)cc1
inactive: [4] 86 % of control | [5] 94 % of control | [7] 88 % of control

COc1ccc(/C=C/C(=O)c2ccc3cc(OC)c(OC)cc3c2)cc1OC
inactive: [10] 91 % of control | [11] 89 % of control | dose: 400.0 mg/kg/injection, schedule: Q04DX003 (ip), vehicle: saline 87 % of control

CCOC(=O)NC1=C(NCCCl)C(=O)C(NC(=O)OCC)=C(NCCCl)C1=O
inactive: dose: 6.25 mg/kg/injection, schedule: Q04DX003 (ip), vehicle: saline 92 % of control | dose: 12.5 mg/kg/injection, schedule: Q04DX003 (ip), vehicle: saline 95 % of control | dose: 25.0 mg/kg/injection, schedule: Q04DX003 (ip), vehicle: saline 106 % of control | dose: 50.0 mg/kg/injection, schedule: Q04DX003 (ip), vehicle: saline 104 % of control | [10] 90 % of control

Cc1c([N+](=O)[O-])cc(C(=O)Cl)cc1[N+](=O)[O-]
inactive: dose: 100.0 mg/kg/injection, schedule: Q04DX003 (ip), vehicle: other 106 % of control | dose: 200.0 mg/kg/injection, schedule: Q04DX003 (ip), vehicle: other 109 % of control

O=c1ccnc(C(F)(F)F)[nH]1
inactive: dose: 44.0 mg/kg/injection, schedule: Q01DX Z (ip), vehicle: methylcellulose (MC) 87 % of control | dose: 66.0 mg/kg/injection, schedule: Q01DX Z (ip), vehicle: methylcellulose (MC) 96 % of control | dose: 100.0 mg/kg/injection, schedule: Q01DX Z (ip), vehicle: methylcellulose (MC) 101 % of control

CC(C)OC(=O)Nc1ccncc1
inactive: dose: 3.13 mg/kg/injection, schedule: Q01DX009 (ip), vehicle: saline with Tween-80 93 % of control | dose: 6.25 mg/kg/injection, schedule: Q01DX009 (ip), vehicle: saline with Tween-80 97 % of control | dose: 6.25 mg/kg/injection, schedule: Q04DX002 (ip), vehicle: saline with Tween-80 110 % of control | dose: 12.5 mg/kg/injection, schedule: Q01DX009 (ip), vehicle: saline with Tween-80 101 % of control | dose: 12.5 mg/kg/injection, schedule: Q04DX002 (ip), vehicle: saline with Tween-80 96 % of control
